Read-outs that look alike come from different tables or passages of the source. Marks after values point to notes of the source that are not given here.
Experiments:
TcoAT1 = format: cell-based, Trypanosoma congolense; settings: for Ki: 0.05 µM [3H]-adenosine, 10 s, IC50 converted to Ki, read-out: Ki on the transport of [3H]-adenosine
Text: The information for the T. congolense adenosine transporter (TcoAT1) and four putative T. vivax nucleoside transporters was obtained in the TritrypDB (tritrypdb.org/tritrypdb) genome database. Primers were designed to flank each gene upstream of the 5′ end (forward) and downstream of the 3′ end (reverse) as described (primer sequences in Supplementary Table S2). Following amplification from the genomic DNA of T. congolense or T. vivax, DNA for each extracted gene was ligated into the pNUS-HcN expression vector doubly digested with NdeI using the NEBuilder kit according to the manufacturer’s instructions (New England Biolabs). Construct was transformed into competent E. coli cells, and ligation was confirmed by restriction enzyme digestion of isolated plasmid DNA followed by Sanger sequencing (Source BioScience, Nottingham, UK). Confirmed plasmids were then transfected into L. mexicana cell line in which both NT1 and NT2 were doubly knocked out (SUPKO) and derived from L. mexicana Cas9 [64] as described. Clones grown in medium containing 50 μg/mL neomycin (G418) were collected for further confirmation by PCR with genomic DNA using a forward primer of the transporter gene and a reverse primer of the plasmid.
(§1) Uptake assays using radiolabeled trypanocides and/or nucleosides were carried out as described previously. Briefly, parasite cultures were harvested, washed twice in assay buffer (33 mM HEPES, 98 mM NaCl, 4.6 mM KCl, 0.5 mM CaCl2, 0.07 mM MgSO4, 5.8 mM NaH3PO4, 0.03 mM MgCl2, 23 mM NaHCO3, 14 mM D-glucose, pH 7.3), then resuspended and adjusted to a density of 1 × 10^8 cells/mL in assay buffer. The radiolabeled permeant in the presence or absence of different concentrations of potential inhibitors reconstituted in 100 μL assay buffer was deposited on top of 250 μL oil mix in microcentrifuge tubes; 1 × 10^7 parasites in 100 μL assay buffer were added to the tube and incubated for a pre-determined interval. The reaction was stopped by the addition of 1 mL of a high concentration of ice-cold unlabeled substrate in assay buffer (‘stop solution’) and centrifugation, or by immediate centrifugation at […] as appropriate. The microcentrifuge tubes were flash-frozen, and the bottom of each tube containing the cell pellet was cut off and transferred to a scintillation vial. Cell pellets were lysed in 2% SDS, after which scintillation fluid (Scintlogic U, Lablogic) was added, followed by overnight incubation in the dark. Scintillation was measured in a 300SL (Hidex) scintillation counter (Hidex). All the assays were conducted in triplicate and analysis was carried out using Microsoft Excel and GraphPad Prism. All kinetic parameters were obtained on at least 3 separate occasions.
(§2) The dose-dependent uptake assay allowed for the affinity of nucleoside analogs to different nucleoside transporters to be determined by measuring the extent to which the analogs compete with and inhibit the uptake of radiolabel adenosine. This allowed for the determination of biochemical parameters such as Km and Vmax through the application of the Michaelis–Menten equation V0 = Vmax([substrate]/([substrate] + Km)). The 50% Inhibitory Concentration (IC50) of the purines and pyrimidines and their analogs was determined from non-linear regression to sigmoid curves with variable slope (Prism 8), and the IC50 of the inhibitor and the Km of the labeled permeant were then used to calculate the inhibition constant (Ki) of the analogs through the Cheng–Prusoff equation: Ki = IC50/(1 + (L/Km)), where L denotes the radiolabel concentration. The calculated Ki was in turn used to determine the Gibbs free energy (ΔG^0) of the inhibitor–transporter interaction using the equation: ΔG^0 = -RTln(Ki), where R represents the gas constant and T symbolizes the absolute temperature in Kelvin [104].

T. vivax [1] = experiment: T. vivax EC50 (from Mabille et al.); format: cell-based, Trypanosoma vivax; settings: from Table 8 data
[2] = target: T. congolense adenosine transporter; experiment: [3H]-adenosine uptake and its inhibition in T. congolense IL3000 bloodstream forms; format: cell-based, Trypanosoma congolense; settings: for Ki: 0.05 µM [3H]-adenosine, 30 s, IC50 converted to Ki, read-out: Ki on the transport of [3H]-adenosine; for ΔG0, Gibbs free energy of interaction: calculated from Km or Ki
Protocol: as §1, §2

T. congolense IL3000 [3] = experiment: Alamar Blue (resazurin) assay, T. congolense IL3000; format: cell-based, Trypanosoma congolense; settings: BSF, resazurin; read-out: T. congolense IL3000 EC50
Protocol: (§3) EC50 values were determined by plotting to an equation for a sigmoid curve with variable slope (GraphPad Prism 8). All values were the average of at least three independent determinations on different days.

L. mexicana SUPKO = experiment: microbe, parasite or virus in culture; format: cell-based, Leishmania mexicana; settings: for EC50: resazurin, promastigotes, read-out: SUPKO EC50; for SUPKO RF (Cas9): Resistance Factor = EC50(SUPKO)/EC50(Cas9)
Protocol: as §3

L. mexicana SUPKO+TcoAT1 = experiment: microbe, parasite or virus in culture; format: cell-based, Leishmania mexicana; settings: for EC50: resazurin, promastigotes, read-out: SUPKO+TcoAT1 EC50; for SUPKO+TcoAT1 RF (SUPKO): Resistance Factor relative to SUPKO
Protocol: as §3

L. mexicana SUPKO+TvxNT3 = experiment: microbe, parasite or virus in culture; format: cell-based, Leishmania mexicana; settings: for EC50: resazurin, promastigotes, read-out: SUPKO+TvxNT3 EC50; for SUPKO+TvxNT3 RF (SUPKO): Resistance Factor relative to SUPKO
Protocol: as §3

T. evansi = experiment: Alamar Blue (resazurin) assay, T. evansi; format: cell-based, Trypanosoma evansi; settings: resazurin; read-out: T. evansi EC50
Protocol: as §3

T. vivax [4] = test system: T. vivax; set-up: method as in Mabille et al. [69]; settings: added for comparison only; ref Mabille et al. [69]; cited from earlier work
T. congolense 6C3 [5] = experiment: microbe, parasite or virus in culture; format: cell-based, Trypanosoma congolense; settings: for EC50: diminazene resistant strain, resazurin, read-out: T. congolense 6C3 EC50; for T. congolense 6C3 RF: resistance factor = EC50 (test strain)/EC50(control strain)
Protocol: as §3

T. equiperdum = experiment: Alamar Blue (resazurin) assay, T. equiperdum; format: cell-based, Trypanosoma equiperdum; settings: resazurin; read-out: T. equiperdum EC50
Protocol: as §3

L. mexicana Cas9 = experiment: Resazurin drug sensitivity assay, LmexCas9; format: cell-based, Leishmania mexicana; settings: resazurin, promastigotes; read-out: LmexCas9 EC50
Protocol: as §3

T.b.b. B48 = experiment: Alamar Blue (resazurin) assay, T. b. brucei B48; format: cell-based, Trypanosoma brucei brucei; settings: multidrug-resistant strain, resazurin; read-out: T.b.b. B48 EC50
Protocol: as §3

[6] = test system: human embryonic kidney (HEK) cells; experiment: Resazurin toxicity assay on human embryonic kidney cells; format: cell-based; settings: for SI T. congolense: selectivity index = EC50 (HEK cells)/EC50 (T. congolense); for SI T. equiperdum: selectivity index = EC50 (HEK cells)/EC50 (T. equiperdum); for SI T. evansi: selectivity index = EC50 (HEK cells)/EC50 (T. evansi)
Protocol: as §3

T. congolense IL3000 [7] = test system: T. congolense IL3000; set-up: method as in Hulpia et al. [38]; settings: values marked *; ref Hulpia et al. [38]; cited from earlier work
T. congolense 6C3 [8] = test system: T. congolense 6C3; set-up: method as in Hulpia et al. [38]; settings: values marked *; ref Hulpia et al. [38]; cited from earlier work
[9] = resazurin, 96 well plates, read-out: HEK EC50

SMILES | Ki (TcoAT1) [µM] | Ki [2] [µM] | EC50 (T. congolense IL3000 [3]) [nM] | EC50 (L. mexicana SUPKO) [µM] | EC50 (L. mexicana SUPKO+TcoAT1) [µM] | EC50 (L. mexicana SUPKO+TvxNT3) [µM] | EC50 (T. evansi) [nM] | EC50 (T. vivax [4]) [nM] | EC50 (T. congolense 6C3 [5]) [nM] | T. congolense 6C3 RF (T. congolense 6C3 [5]) | EC50 (T. equiperdum) [nM] | EC50 (L. mexicana Cas9) [µM] | EC50 (T.b.b. B48) [nM] | SUPKO RF (Cas9) (L. mexicana SUPKO) | SUPKO+TcoAT1 RF (SUPKO) (L. mexicana SUPKO+TcoAT1) | SUPKO+TvxNT3 RF (SUPKO) (L. mexicana SUPKO+TvxNT3) | SI T. congolense [6] | SI T. equiperdum [6] | SI T. evansi [6] | EC50 [6, 9] [µM] | further results
C=Cc1cn([C@@H]2O[C@H](CO)C[C@H]2O)c2ncnc(N)c12 [FH10659] | 59.3 ± 4.3 | 28.5 ± 8.1 | 56 ± 4 | > 100 | > 100 | > 100 | 38 ± 1.5 | 1570 ± 430 | 40 ± 3 | 0.70 | 11 ± 1 | > 100 |  |  |  |  |  |  |  |  | fold higher EC50 against T. vivax compared to T. congolense (T. vivax [1]): 10–165 fold; ΔG0, Gibbs free energy of interaction [2]: -25.9 kJ/mol
C#Cc1cn([C@@H]2O[C@H](CO)C[C@H]2O)c2ncnc(N)c12 [FH8505] |  |  | 17 ± 2 | > 100 | 89.9 ± 12.5 | 80 ± 7.7 | 7.8 ± 2 | 160 ± 10 | 8 ± 2 | 0.46 ^a | 2.6 ± 0.8 | 92.7 ± 4.3 | 31 ± 4 | >1.08 | >1.1 | >1.25 | 68 | 446 | 151 |  | fold higher EC50 against T. vivax compared to T. congolense (T. vivax [1]): 10–165 fold; EC50 [6]: 1.17 ± 0.06 µM
Nc1ncnc2c1c(I)cn2[C@@H]1O[C@H](CO)C[C@H]1O [FH8496] | 135 ± 11 | 46.2 ± 1.7 | 5.4 ± 1 | 52.6 | 23.9 ± 5.6 | 40 ± 9.2 | 3.7 ± 1.2 | 56 ± 1 | 3 ± 0.2 | 0.56 | 1.5 ± 0.5 | 51.8 ± 10.3 | 24 ± 2 | 1.01 | >2.2 | >1.2 | 902 | 3260 | 1340 |  | ΔG0, Gibbs free energy of interaction [2]: -24.7 kJ/mol; EC50 [6]: 4.91 ± 0.03 µM
Nc1ncnc2c1c(F)cn2[C@@H]1O[C@H](CO)C[C@H]1O [FH8517] | 229 ± 15 | 98.1 ± 2.3 | 5.2 ± 0.3 | 9.96 ± 2.04 | 6.1 ± 0.7 | 9.42 ± 1.41 | 4 ± 0.6 | 500 ± 10 | 3.1 ± 0.3 | 0.60 | 0.52 ± 0.11 | 3.09 ± 0.04 | 13 ± 2 | 3.22 | 1.64 | 1.06 | 330 | 3310 | 431 |  | ΔG0 (TcoAT1; Gibbs free energy of binding, from Km or Ki): -20.8 kJ/mol; ΔG0, Gibbs free energy of interaction [2]: -22.9 kJ/mol; EC50 [6]: 1.71 ± 0.11 µM
Nc1ncnc2c1c(Br)cn2[C@H]1C[C@H](O)[C@@H](CO)O1 [FH10679] |  |  | 510 ± 90 |  |  |  | 1740 ± 530 | 4300 ± 900 | 310 ± 70 | 0.60 | 67 ± 13 |  | 1040 ± 190 |  |  |  | >390 | >3000 | >115 | > 200 | 
Nc1ncnc2c1c(Cl)cn2[C@@H]1O[C@H](CO)[C@@H](O)[C@H]1O [FH3169] |  |  | 860 ± 120 | 15.4 ± 2.7 | 9.41 ± 0.56 | 15.9 ± 2.5 | 620 ± 60 | 53 ± 7 | 750 ± 140 | 0.87 | 120 ± 18 | 0.23 ± 0.005 | 1840 ± 330 | 67.7 | 1.64 | 0.97 | 5.3 | 37 | 7.4 | 4.55 ± 0.19 | 
Nc1ncnc2c1ccn2[C@H]1C[C@H](O)[C@@H](CO)O1 [FH10677] |  |  | 43300 ± 14500 |  |  |  | > 100000 | > 64000 | 10900 ± 2300 | 0.25 | 17400 ± 2300 |  | 38000 ± 2300 |  |  |  | >4.6 | >12 |  | > 200 | 
CC(C)Oc1ncnc2c1c(Cl)cn2[C@@H]1O[C@H](CO)[C@@H](O)[C@H]1O [FH9531] |  |  |  | > 100 | > 100 | > 100 |  | 120 ± 10 |  | 0.80 |  | > 100 |  |  |  |  |  |  |  |  | EC50 (T. congolense IL3000 [7]): 4.04 ± 0.36 µM; EC50 (T. congolense 6C3 [8]): 3.23 ± 0.36 µM
Nc1ncnc2c1c(Br)cn2[C@@H]1O[C@H](CO)[C@@H](O)[C@H]1O [TH1003] |  |  | 790 ± 140 | > 100 | 71.1 ± 5 | > 100 | 480 ± 60 | 740 ± 40 | 520 ± 31 | 0.66 | 85 ± 26 | 2.43 ± 0.14 | 1400 ± 90 | >41.2 | >1.4 |  | 3.0 | 28 | 4.9 | 2.37 ± 0.12 | 

From article PMC9960827, “Cloning and Characterization of Trypanosoma congolense and T. vivax Nucleoside Transporters Reveal the Potential of P1-Type Carriers for the Discovery of Broad-Spectrum Nucleoside-Based Therapeutics against Animal African Trypanosomiasis” (International Journal of Molecular Sciences, 2023)
